Assay results: patent publication US20050255071A1, “Preparation having improved therapeutic breadth comprising nucleotide synthesis inhibitors” (Aventis Pharma Deutschland GmbH, priority 1998, published 2005)
Like-named read-outs stand apart in the source and are kept apart here.

Experiments:
[1] = Blood level and duration of action of compound 1 after time-displaced colestyramine; type: in vivo; details: with time-displaced administration of colestyramine (2 hours or 4 hours after compound 1)
Description: The preparation according to the invention can also include compositions or combination packs in which the constituents are placed next to one another and can therefore be used simultaneously, separately, or sequentially on one and the same human or animal body. The sequential administration of a compound of formula (I) and/or (II) before the administration of a compound, which essentially prevents the enterohepatic circulation of a compound of formula (I) and (II), is preferred. To this end, for example, N-(4-trifluoromethylphenyl)-2-cyano-3-hydroxycrotonamide (called compound 1 in the following) is administered first. Colestyramine, which essentially prevents the enterohepatic circulation of compound 1, is administered with a displacement in time, i.e., 2 hours or 4 hours after the administration of compound 1. Because of the time-displaced administration of compound 1 relative to colestyramine, compound 1 is initially absorbed unhindered from the digestive tract. After the administration of colestyramine, which is not absorbed systemically, compound 1 excreted via the bowel is bound to colestyramine, and cannot therefore be reabsorbed again; as a result, an interruption to the enterohepatic circulation is brought about.

[2] = Alkaline phosphatase and amylase in adjuvant-arthritis rats (Example 3); details: rat, in vivo, po, 25 mg/kg
Procedure: (§1) The experimental animals used were male rats of a Lewis strain (Moellegard, Denmark) having a body weight of from 160 to 210 g. On the 1st day, the animals were injected subcutaneously, into the tail root, with complete Freund's adjuvant containing a Mycobacterium butyricum suspension in heavy paraffin oil (Difco, 6 mg/kg in paraffin oil, Merck). The compounds N-(4-trifluoromethylphenyl)-2-cyano-3-hydroxycrotonamide and colestyramine were suspended in carboxymethylcellulose (1% in water), and administered orally. The compounds were administered once daily from the 1st to the 17th day of the experiment; the paw volume and arthritis index were then determined on the 18th day.
The experimental conditions were analogous to Example 1. The actions of compound 1 and colestyramine on the amount on the of alkaline phosphatase (AP) and amylase were determined. Colestyramine was administered 4 hours later than compound 1.

[3] = system: Adjuvant-Induced Arthritis; type: in vivo, rats
Procedure: Adjuvant-Induced Arthritis, Modification According to Perper (Proc. Soc. Exp. Biol. Med. 137, 506 (1971)).
as §1
The severity of the disorder was determined by measuring the paw volume of both hind paws. The measurement was carried out by means of the water displacement method using a 2060 Plethys monitor (Rhema-Labortechnik, Hofheim, Germany). The arthritis index was furthermore determined in the 18th day after injection.
Determination of the arthritis index was scored as follows:
On the first day, animals of an “arthritis control” control group were given a subcutaneous injection, into the tail root, with complete Freund's adjuvant but were given only the solvent (i.e., 1% cabrboxymethylcellulose in water). Six animals in each case were used per dose and in the control group. Untreated animals were employed as a further “healthy control” control group. The activity criteria used were the reduction of the increase in the paw volume and the decrease in the arthritis index, compared with the untreated control group, and the weight of the animals, in each case in percent and based on the arthritis control.
In the following table, N-(4-trifluoromethylphenyl)-2-cyano-3-hydroxycrotonamide is compound 1. Colestyramine was administered 4 hours later than compound 1.

[4] = GOT, GPT, RBC, HGB, HCT in adjuvant-arthritis rats (Example 2); details: rat, in vivo, po, 25 mg/kg
Procedure: as §1
The experimental conditions were analogous to Example 1. The actions of compound 1 and colestyramine on the amount of red blood corpuscles (RBC), hemoglobin content (HGB), hematocrit (HCT), amount of glutamate oxlacetate transaminase (GOT), and glutamate pyruvate transaminase (GPT) were determined. Colestyramine was administered 4 hours later than compound 1.

[5] = Example 1, 2.5 mg/kg of live weight oral once daily day 1-17, day 18
[6] = Example 1, 7.5 mg/kg of live weight oral once daily day 1-17, day 18
[7] = Example 1, 25 mg/kg of live weight oral once daily day 1-17, day 18
[8] = Example 2, 25 mg/kg of live weight oral
[9] = Example 3, 25 mg/kg of live weight oral

blood level of compound 1 [1]: drastically reduced
duration of action [1]: drastically reduced
AP [2]: 114.8 U/I
Amylase [2]: 1306.5 U/I
GOT [4]: 85.3 U/I
GPT [4]: 25.1 U/I
HCT [4]: 18.7%
HGB [4]: 6.1 g/dL
RBC [4]: 3.8 *10^6/mm^3
SMILES: C/C(O)=C(\C#N)C(=O)Nc1ccc(C(F)(F)F)cc1 [Compound 1, N-(4-trifluoromethylphenyl)-2-cyano-3-hydroxycrotonamide]
desired actions on the immune system ([3]; 25 mg/kg/day of compound 1, with administration of colestyramine): retention
Arthritis index [3, 5]: −77%
Paw Volume [3, 5]: −63%
Arthritis index [3, 6]: −92%
Paw Volume [3, 6]: −83%
Arthritis index [3, 7]: −100%
Paw Volume [3, 7]: −92%
Arthritis index [3, 8]: −100%
Paw Volume [3, 8]: −92%
Arthritis index [3, 9]: −100%
Paw Volume [3, 9]: −110%
activity in adjuvant arthritis ([3]; approximately 2.5 mg/kg/day of compound 1, with administration of colestyramine): not reduced
